Results published in patent publication US10196403B2, “Compounds and compositions and uses thereof” (Sunovion Pharmaceuticals Inc., priority 2016, dated 2019).

Tested on: mice
Assay: Neuropharmacological Assay (SmartCube)
Assay type: in vivo
Conditions: for minimal effective dose: Mus musculus, read-out: POTENCY (minimal effective dose, MED); for minimal effective dose / POTENCY (minimal effective dose, MED): MED = dose having 50% or more total activity in SmartCube; for AD: ADHD (SmartCube probability) / AG: analgesic (SmartCube probability) / AX: anxiolytic (SmartCube probability) / CE: cognitive enhancer (SmartCube probability) / DP: anti-depressant (SmartCube probability) / MS: mood stabilizer (SmartCube probability) / PS: anti-psychotic (SmartCube probability) / SD: sedative hypnotic (SmartCube probability) / UN: uncharacterized CNS activity (SmartCube probability): mice, i.p. 15 min before test, most efficacious dose(s) of 3 doses
How it was run: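 Behavior of treated mice captured by digital video and matched algorithmically against reference drug classes, yielding a class probability at the most efficacious of 3 i.p. doses (15 min pretreatment, NMP/PEG/propylene glycol vehicle). Potency given as MED, the mpk dose reaching ≥50% total activity across usually 0.3–30 mpk.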

SMILES | minimal effective dose [mg/kg] | AD: ADHD (SmartCube probability) | AG: analgesic (SmartCube probability) | AX: anxiolytic (SmartCube probability) | CE: cognitive enhancer (SmartCube probability) | DP: anti-depressant (SmartCube probability) | MS: mood stabilizer (SmartCube probability) | PS: anti-psychotic (SmartCube probability) | SD: sedative hypnotic (SmartCube probability) | UN: uncharacterized CNS activity (SmartCube probability) | POTENCY (minimal effective dose, MED)
CNC[C@H]1OCCc2cccc(C)c21 [Example 40, (S)-N-methyl-1-(8-methylisochroman-1-yl)methanamine] | < 3 | + (LOQ≤ + <5%) | + (LOQ≤ + <5%) | +++ (25%≤ +++ <50%) | + (LOQ≤ + <5%) | ++ (5%≤ ++ <25%) | + (LOQ≤ + <5%) | ++ (5%≤ ++ <25%) | ++ (5%≤ ++ <25%) | +++ (25%≤ +++ <50%) | –
CNC[C@@H]1OCCc2cccc(C)c21 [Example 41, (R)-N-methyl-1-(8-methylisochroman-1-yl)methanamine] | < 3 | + (LOQ≤ + <5%) | ++ (5%≤ ++ <25%) | ++ (5%≤ ++ <25%) | + (LOQ≤ + <5%) | ++ (5%≤ ++ <25%) | + (LOQ≤ + <5%) | ++++ (50%≤ ++++) | ++ (5%≤ ++ <25%) | ++++ (50%≤ ++++) | –
CNC[C@H]1OCCc2cccc(C#N)c21 [Example 44, (S)-1-((methylamino)methyl)isochromane-8-carbonitrile] | 3 to 10 | + (LOQ≤ + <5%) | ++ (5%≤ ++ <25%) | ++ (5%≤ ++ <25%) | ++ (5%≤ ++ <25%) | + (LOQ≤ + <5%) | + (LOQ≤ + <5%) | ++ (5%≤ ++ <25%) | + (LOQ≤ + <5%) | +++ (25%≤ +++ <50%) | –
CNC[C@@H]1OCCc2cccc(C#N)c21 [Example 45, (R)-1-((methylamino)methyl)isochromane-8-carbonitrile] | 3 to 10 | + (LOQ≤ + <5%) | ++ (5%≤ ++ <25%) | ++ (5%≤ ++ <25%) | ++ (5%≤ ++ <25%) | + (LOQ≤ + <5%) | + (LOQ≤ + <5%) | ++ (5%≤ ++ <25%) | + (LOQ≤ + <5%) | ++++ (50%≤ ++++) | –
CNC[C@H]1OCCc2c(C#N)cccc21 [Example 46, (S)-1-((methylamino)methyl)isochromane-5-carbonitrile] | 3 to 10 | + (LOQ≤ + <5%) | + (LOQ≤ + <5%) | ++ (5%≤ ++ <25%) | ++ (5%≤ ++ <25%) | ++ (5%≤ ++ <25%) | + (LOQ≤ + <5%) | ++ (5%≤ ++ <25%) | ++ (5%≤ ++ <25%) | +++ (25%≤ +++ <50%) | –
CNC[C@@H]1OCCc2c(C#N)cccc21 [Example 47, (R)-1-((methylamino)methyl)isochromane-5-carbonitrile] | 3 to 10 | + (LOQ≤ + <5%) | + (LOQ≤ + <5%) | ++ (5%≤ ++ <25%) | + (LOQ≤ + <5%) | ++++ (50%≤ ++++) | + (LOQ≤ + <5%) | ++ (5%≤ ++ <25%) | ++ (5%≤ ++ <25%) | ++ (5%≤ ++ <25%) | –
CC(N)C1OCCc2ccc3c(c21)OCO3 (stereo not drawn) [Example 55] | – | + (LOQ≤ + <5%) | ++ (5%≤ ++ <25%) | ++ (5%≤ ++ <25%) | + (LOQ≤ + <5%) | ++ (5%≤ ++ <25%) | + (LOQ≤ + <5%) | + (LOQ≤ + <5%) | + (LOQ≤ + <5%) | ++++ (50%≤ ++++) | C (>10 to ≤30 mpk)
CNC(C)C1OCCc2ccc3c(c21)OCO3 (stereo not drawn) [Example 57] | – | + (LOQ≤ + <5%) | ++ (5%≤ ++ <25%) | ++ (5%≤ ++ <25%) | ++ (5%≤ ++ <25%) | + (LOQ≤ + <5%) | + (LOQ≤ + <5%) | + (LOQ≤ + <5%) | + (LOQ≤ + <5%) | +++ (25%≤ +++ <50%) | D (>30 mpk)
CNC[C@H]1OCCCc2cccc(F)c21 [Example 60, (S)-1-(9-fluoro-1,3,4,5-tetrahydrobenzo[c]oxepin-1-yl)-N-methylmethanamine] | 3 to 10 | + (LOQ≤ + <5%) | + (LOQ≤ + <5%) | ++ (5%≤ ++ <25%) | + (LOQ≤ + <5%) | ++ (5%≤ ++ <25%) | + (LOQ≤ + <5%) | ++ (5%≤ ++ <25%) | ++++ (50%≤ ++++) | +++ (25%≤ +++ <50%) | –
CNC[C@@H]1OCCCc2cccc(F)c21 [Example 61, (R)-1-(9-fluoro-1,3,4,5-tetrahydrobenzo[c]oxepin-1-yl)-N-methylmethanamine] | 3 to 10 | + (LOQ≤ + <5%) | + (LOQ≤ + <5%) | ++ (5%≤ ++ <25%) | + (LOQ≤ + <5%) | + (LOQ≤ + <5%) | + (LOQ≤ + <5%) | ++++ (50%≤ ++++) | + (LOQ≤ + <5%) | +++ (25%≤ +++ <50%) | –
CNC[C@H]1OCCc2c(OC)cccc21 [Example 62, (S)-1-(5-methoxyisochroman-1-yl)-N-methylmethanamine] | 10 to 30 | + (LOQ≤ + <5%) | ++ (5%≤ ++ <25%) | ++++ (50%≤ ++++) | + (LOQ≤ + <5%) | + (LOQ≤ + <5%) | + (LOQ≤ + <5%) | + (LOQ≤ + <5%) | + (LOQ≤ + <5%) | ++ (5%≤ ++ <25%) | –
CNC[C@@H]1OCCc2c(OC)cccc21 [Example 63, (R)-1-(5-methoxyisochroman-1-yl)-N-methylmethanamine] | – | ++ (5%≤ ++ <25%) | + (LOQ≤ + <5%) | ++ (5%≤ ++ <25%) | + (LOQ≤ + <5%) | ++++ (50%≤ ++++) | + (LOQ≤ + <5%) | + (LOQ≤ + <5%) | ++ (5%≤ ++ <25%) | ++++ (50%≤ ++++) | A-B
